# Measurements taken from ChEMBL document CHEMBL4002623, “Synthesis and in vitro activity of dicationic indolyl diphenyl ethers as novel potent antibiotic agents against drug-resistant bacteria” (Bioorg Med Chem Lett, 2017).
# What was measured:
# [1] = tested on: Staphylococcus aureus; experiment: Antibacterial activity against methicillin-resistant Staphylococcus aureus ATCC 33591 by agar dilution method; type: functional
# [2] = tested on: Salmonella typhi; experiment: Antibacterial activity against Salmonella typhi H901 by agar dilution method; type: functional, Salmonella enterica subsp. enterica serovar Typhi; conditions: Salmonella enterica
# [3] = tested on: Morganella morganii; experiment: Antibacterial activity against Morganella morganii ATCC 25830 by agar dilution method; type: functional
# [4] = Cytotoxicity against HEK293T cells after 48 hrs by MTS assay; type: cell-based, HEK-293T; conditions: human
# [5] = tested on: Pseudomonas aeruginosa; experiment: Antibacterial activity against Pseudomonas aeruginosa PAO1 by agar dilution method; type: functional
# [6] = tested on: Enterococcus faecalis; experiment: Antibacterial activity against vancomycin-resistant Enterococcus faecalis 09-9 by agar dilution method; type: functional
# [7] = tested on: Klebsiella pneumoniae; experiment: Antibacterial activity against extended-spectrum beta-lactamase-positive Klebsiella pneumoniae 09-25 by agar dilution method; type: functional
# [8] = tested on: Serratia marcescens; experiment: Antibacterial activity against Serratia marcescens 41002 by agar dilution method; type: functional
# [9] = tested on: Escherichia coli; experiment: Antibacterial activity against extended-spectrum beta-lactamase-negative Escherichia coli ATCC 25922 by agar dilution method; type: functional
# [10] = tested on: Enterococcus faecalis; experiment: Antibacterial activity against vancomycin-sensitive Enterococcus faecalis 09-8 by agar dilution method; type: functional
# [11] = tested on: Staphylococcus aureus; experiment: Antibacterial activity against methicillin-sensitive Staphylococcus aureus 09-6 by agar dilution method; type: functional
# [12] = tested on: Pseudomonas aeruginosa; experiment: Antibacterial activity against Pseudomonas aeruginosa 09-14 by agar dilution method; type: functional
# [13] = tested on: Klebsiella aerogenes; experiment: Antibacterial activity against Enterobacter aerogenes 45102 by agar dilution method; type: functional
# [14] = tested on: Enterococcus faecium; experiment: Antibacterial activity against vancomycin-sensitive Enterococcus faecium 09-10 by agar dilution method; type: functional
# [15] = tested on: Klebsiella pneumoniae; experiment: Antibacterial activity against extended-spectrum beta-lactamase-negative Klebsiella pneumoniae 7 by agar dilution method; type: functional
# [16] = tested on: Staphylococcus epidermidis; experiment: Antibacterial activity against methicillin-sensitive Staphylococcus epidermidis 09-9 by agar dilution method; type: functional
# [17] = tested on: Escherichia coli; experiment: Antibacterial activity against extended-spectrum beta-lactamase-negative Escherichia coli 09-20 by agar dilution method; type: functional
# [18] = tested on: Proteus mirabilis; experiment: Antibacterial activity against Proteus mirabilis 09-1 by agar dilution method; type: functional
# [19] = tested on: Staphylococcus epidermidis; experiment: Antibacterial activity against methicillin-resistant Staphylococcus epidermidis 09-3 by agar dilution method; type: functional
# [20] = tested on: Proteus vulgaris; experiment: Antibacterial activity against Proteus vulgaris ATCC 29905 by agar dilution method; type: functional
# [21] = tested on: Enterococcus faecalis; experiment: Antibacterial activity against vancomycin-sensitive Enterococcus faecalis ATCC 29212 by agar dilution method; type: functional
# [22] = tested on: Citrobacter freundii; experiment: Antibacterial activity against Citrobacter freundii ATCC 43864 by agar dilution method; type: functional
# [23] = tested on: Providencia rettgeri; experiment: Antibacterial activity against Providencia rettgeri ATCC 31052 by agar dilution method; type: functional
# [24] = tested on: Staphylococcus aureus; experiment: Antibacterial activity against methicillin-resistant Staphylococcus aureus 09-13 by agar dilution method; type: functional
# [25] = tested on: Enterococcus faecalis; experiment: Antibacterial activity against vancomycin-resistant Enterococcus faecalis ATCC 51299 by agar dilution method; type: functional
# [26] = tested on: Klebsiella pneumoniae; experiment: Antibacterial activity against extended-spectrum beta-lactamase-positive Klebsiella pneumoniae ATCC 700603 by agar dilution method; type: functional
# [27] = tested on: Escherichia coli; experiment: Antibacterial activity against extended-spectrum beta-lactamase-positive Escherichia coli 09-1 by agar dilution method; type: functional
# [28] = tested on: Pseudomonas aeruginosa; experiment: Antibacterial activity against Pseudomonas aeruginosa ATCC 27853 by agar dilution method; type: functional
# [29] = tested on: Staphylococcus aureus; experiment: Antibacterial activity against methicillin-sensitive Staphylococcus aureus ATCC 29213 by agar dilution method; type: functional
# [30] = tested on: Acinetobacter calcoaceticus; experiment: Antibacterial activity against Acinetobacter calcoaceticus ATCC 19606 by agar dilution method; type: functional
# [31] = tested on: Escherichia coli; experiment: Antibacterial activity against extended-spectrum beta-lactamase-negative Escherichia coli 1515 by agar dilution method; type: functional
# [32] = tested on: Staphylococcus aureus; experiment: Antibacterial activity against methicillin-sensitive Staphylococcus aureus 15 by agar dilution method; type: functional
# [33] = tested on: Enterobacter cloacae; experiment: Antibacterial activity against Enterobacter cloacae 45301 by agar dilution method; type: functional
# [34] = tested on: Staphylococcus epidermidis; experiment: Antibacterial activity against methicillin-sensitive Staphylococcus epidermidis ATCC 12228 by agar dilution method; type: functional
# [35] = tested on: Enterococcus faecium; experiment: Antibacterial activity against vancomycin-resistant Enterococcus faecium ATCC 700221 by agar dilution method; type: functional
# [36] = tested on: Klebsiella pneumoniae; experiment: Antibacterial activity against extended-spectrum beta-lactamase-negative Klebsiella pneumoniae 09-8 by agar dilution method; type: functional
# [37] = tested on: Klebsiella pneumoniae; experiment: Antibacterial activity against Klebsiella pneumoniae ATCC BAA-2146 expressing NDM-1 by agar dilution method; type: functional
# [38] = tested on: Enterococcus faecium; experiment: Antibacterial activity against vancomycin-resistant Enterococcus faecium 05-8 by agar dilution method; type: functional
SMILES,MIC [1] [µg/mL],MIC [2] [µg/mL],MIC [3] [µg/mL],CC50 at 48 h [4] [µg/mL],MIC [5] [µg/mL],MIC [6] [µg/mL],MIC [7] [µg/mL],MIC [8] [µg/mL],MIC [9] [µg/mL],MIC [10] [µg/mL],MIC [11] [µg/mL],MIC [12] [µg/mL],MIC [13] [µg/mL],MIC [14] [µg/mL],MIC [15] [µg/mL],MIC [16] [µg/mL],MIC [17] [µg/mL],MIC [18] [µg/mL],MIC [19] [µg/mL],MIC [20] [µg/mL],also measured
N=C(c1ccc2cc(-c3ccc(Oc4ccc(-c5cc6ccc(C(=N)N7CCCCC7)cc6[nH]5)cc4)cc3)[nH]c2c1)N1CCCCC1,16,> 128,> 128,2.5,> 128,32,> 128,> 128,> 128,32,16,> 128,> 128,16 to 32,> 128,8,> 128,> 128,8,> 128,MIC [21]: 32 µg/mL; MIC [22]: > 128 µg/mL; MIC [23]: > 128 µg/mL; MIC [24]: 16 µg/mL; MIC [25]: 64 µg/mL; MIC [26]: > 128 µg/mL; MIC [27]: > 128 µg/mL; MIC [28]: > 128 µg/mL; MIC [29]: 16 µg/mL; MIC [30]: > 128 µg/mL; MIC [31]: > 128 µg/mL; MIC [32]: 16 µg/mL; MIC [33]: > 128 µg/mL; MIC [34]: 8 µg/mL; MIC [35]: 16 to 32 µg/mL; MIC [36]: > 128 µg/mL; MIC [37]: > 128 µg/mL; MIC [38]: 32 µg/mL
CC1CC(C)CN(C(=N)c2ccc3cc(-c4ccc(Oc5ccc(-c6cc7ccc(C(=N)N8CC(C)CC(C)C8)cc7[nH]6)cc5)cc4)[nH]c3c2)C1 (centres undefined),64,> 128,> 128,2.6,> 128,64,> 128,> 128,> 128,64,64,> 128,> 128,128,> 128,64,> 128,> 128,16,> 128,MIC [21]: 128 µg/mL; MIC [22]: > 128 µg/mL; MIC [23]: > 128 µg/mL; MIC [24]: 16 µg/mL; MIC [25]: 64 µg/mL; MIC [26]: > 128 µg/mL; MIC [27]: > 128 µg/mL; MIC [28]: > 128 µg/mL; MIC [29]: 64 µg/mL; MIC [30]: > 128 µg/mL; MIC [31]: > 128 µg/mL; MIC [32]: 64 µg/mL; MIC [33]: > 128 µg/mL; MIC [34]: 16 µg/mL; MIC [35]: 128 µg/mL; MIC [36]: > 128 µg/mL; MIC [37]: > 128 µg/mL; MIC [38]: > 128 µg/mL
N=C(NC1CCCCC1)c1ccc2cc(-c3ccc(Oc4ccc(-c5cc6ccc(C(=N)NC7CCCCC7)cc6[nH]5)cc4)cc3)[nH]c2c1,2,64,64,59.2,> 128,8,128,128,64,4,4,> 128,128,8,128,2,128,> 128,2,128,MIC [21]: 4 µg/mL; MIC [22]: 128 µg/mL; MIC [23]: > 128 µg/mL; MIC [24]: 2 µg/mL; MIC [25]: 4 µg/mL; MIC [26]: > 128 µg/mL; MIC [27]: 128 µg/mL; MIC [28]: > 128 µg/mL; MIC [29]: 4 µg/mL; MIC [30]: 64 µg/mL; MIC [31]: 128 µg/mL; MIC [32]: 2 µg/mL; MIC [33]: 128 µg/mL; MIC [34]: 1 µg/mL; MIC [35]: 2 µg/mL; MIC [36]: 128 µg/mL; MIC [37]: 128 µg/mL; MIC [38]: 4 µg/mL
